# Where two headings read alike, the source gives them in different places.
# Experiments:
# HL-60 cells [1] = assay: MTT assay, metabolic activity (cytotoxicity); type: cell-based, human; conditions: for IC50: MTT
# Method: (§1) Metabolic activity by MTT assay
# (§2) The MTT (3-([…])-2,5-diphenyl tetrazolium bromide) assay was performed to assess the cytotoxicity of the investigated compounds. Briefly, HL-60, MCF-7 and HUVEC cells were seeded in 24-well plates at density of 8 × 10^4/mL. After 24 h incubation, cells were treated with various concentrations of the compounds and incubated for another 24 h or 48 h. Then, the cells were incubated with MTT solution (100 µL; 5 mg/mL in PBS) for 1.5 h and centrifuged. The formazan product was dissolved in DMSO, and the absorption was measured using FlexStation 3 Multi-Mode Microplate Reader (Molecular Devices, LLC, San Jose, CA, USA) at 560 nm. Assays were performed twice in triplicate for each analog.
# (§3) The cytotoxic activity of the obtained methylidenetetrahydropyran-4-ones was investigated in two cancer cell lines, human promyelocytic leukemia (HL-60) and breast cancer adenocarcinoma (MCF-7), and in healthy umbilical vein endothelial cells (HUVEC), for comparison. An anticancer drug, carboplatin, was used as a reference compound. Metabolic activity of the cells was assessed after 48 h incubation with various concentrations of the analogs (Table 6). Purity of all final compounds was determined on the basis of their ^1H NMR spectra (signal-to-noise ratio and presence of unidentified signals) and was at least 98%, in most cases even over 99%.
# MCF-7 cells = assay: MTT assay, metabolic activity (cytotoxicity); type: cell-based, human; conditions: Homo sapiens, MCF7, 48 h incubation, mean ± SEM
# Method: as §1, §2, §3
# HUVEC cells = assay: MTT assay, metabolic activity (cytotoxicity), normal cell line; type: cell-based, human; conditions: Homo sapiens, HUVEC, 48 h incubation, mean ± SEM
# Method: as §1, §2, §3
# HL-60 cells [2] = assay: BrdU incorporation (proliferation), flow cytometry; type: cell-based, human; conditions: 24 h, then BrdU 8 h
# Method: (§4) Analysis of apoptosis, DNA damage and cell cycle
# (§5) Apoptosis, DNA damage, proliferation and cell cycle kinetics were investigated using the Apoptosis, DNA Damage and Cell Proliferation Kit (BD Biosciences, San Jose, CA, USA) according to the manufacturer’s protocol. Briefly, HL-60 cells (2.0 × 10^5 cells/mL) were seeded in 6-well plates and left to grow for 24 h. Then, the cells were treated with 13d or 13g at IC50 and 2IC50 concentrations. After 24 h incubation, the cells were treated with BrdU solution for 8 h. Then, the cells were collected by centrifugation, fixed and permeabilized. To expose the incorporated BrdU, the cells were incubated with DNase (300 µg/mL in PBS) for 1 h at 37 °C. Afterwards, the cells were stained with fluorescent antibodies, including Anti-BrdU, Anti-Cleaved PARP (Asp214) and Anti-H2AX (pS139) for 20 min at room temperature. Total DNA for cell cycle analysis was stained using DAPI solution (1 µg/mL in staining buffer). Finally, the cells were analyzed by flow cytometry using CytoFLEX (Beckman Coulter, Inc., Brea, CA, USA) and the data analysis was performed with Kaluza Analysis Software v2 (Beckam Coulter, Inc., Brea, CA. USA).
# To examine the influences of the investigated compounds on HL-60 cell proliferation, cells were exposed to a thymidine analog, bromodeoxyuridine (BrdU), that incorporates into newly synthesized DNA during proliferation.
# γH2AX in HL-60 cells = assay: γH2AX (H2AX pS139) DNA damage detection, flow cytometry; type: cell-based, human; conditions: compound at 2IC50, 24 h; control 1.1 ± 0.17%
# Method: as §4, §5
# DNA damage can be the result of either single- or double-strand breaks (DSBs). DSB are considered the most dangerous, as it is assumed that in metazoan, just one DSB has the potential to trigger cell death. […]
# human topoisomerase IIα = molecular target: T1, human topoisomerase IIα (Homo sapiens, UniProt P11388); assay: Human Topoisomerase II Decatenation Assay (kDNA); type: biochemical; conditions: for inhibition of topoisomerase II activity: 0.5 mM and 1 mM concentrations, 30 min at 37 °C
# T1 construct: purchased Inspiralis, Norwich, UK
# Method: Topoisomerase IIα activity
# Topoisomerase IIα activity inhibition was assessed using the Human Topoisomerase II Decatenation Assay (Inspiralis, Norwich, UK). Briefly, kDNA was incubated with ATP, assay buffer (50 mM Tris-HCl pH 7.5, 125 mM NaCl, 10 mM MgCl2, 5 mM DTT, 100 µg/mL albumin), human topoisomerase II enzyme and various concentrations of the investigated compounds for 30 min at 37 °C. The reaction was stopped by addition of STEB (40% (w/v) sucrose, 100 mM Tris-HCl pH 8, 1 mM EDTA, 0.5 mg/mL bromophenol blue) followed by DNA extraction with chloroform/iso-amyl alcohol mixture (24:1). The samples were loaded onto a 1% agarose gel and run in a TBE buffer at 85 V for 65 min. Gels were stained with ethidium bromide (1 µg/mL) for 15 min, destained in water and visualized with a transilluminator (ChemiDoc MP Imaging System, Bio-Rad, Hercules, CA, USA).
# The ability of the analogs to inhibit topoisomerase II activity was investigated by measuring decatenation of kinetoplast DNA (kDNA) by human topoisomerase IIα. Topoisomerase II has the ability to decatenate interlinked dsDNA minicircles.
# [3] = Homo sapiens, HL-60, 24 h, 24 h incubation, read-out: IC50 HL-60 after 24 h incubation
# [4] = Homo sapiens, HL-60, 48 h, 48 h incubation, mean ± SEM, read-out: IC50 HL-60
# [5] = compound at 2IC50 concentration
# T1 sequence (P11388 whole entry): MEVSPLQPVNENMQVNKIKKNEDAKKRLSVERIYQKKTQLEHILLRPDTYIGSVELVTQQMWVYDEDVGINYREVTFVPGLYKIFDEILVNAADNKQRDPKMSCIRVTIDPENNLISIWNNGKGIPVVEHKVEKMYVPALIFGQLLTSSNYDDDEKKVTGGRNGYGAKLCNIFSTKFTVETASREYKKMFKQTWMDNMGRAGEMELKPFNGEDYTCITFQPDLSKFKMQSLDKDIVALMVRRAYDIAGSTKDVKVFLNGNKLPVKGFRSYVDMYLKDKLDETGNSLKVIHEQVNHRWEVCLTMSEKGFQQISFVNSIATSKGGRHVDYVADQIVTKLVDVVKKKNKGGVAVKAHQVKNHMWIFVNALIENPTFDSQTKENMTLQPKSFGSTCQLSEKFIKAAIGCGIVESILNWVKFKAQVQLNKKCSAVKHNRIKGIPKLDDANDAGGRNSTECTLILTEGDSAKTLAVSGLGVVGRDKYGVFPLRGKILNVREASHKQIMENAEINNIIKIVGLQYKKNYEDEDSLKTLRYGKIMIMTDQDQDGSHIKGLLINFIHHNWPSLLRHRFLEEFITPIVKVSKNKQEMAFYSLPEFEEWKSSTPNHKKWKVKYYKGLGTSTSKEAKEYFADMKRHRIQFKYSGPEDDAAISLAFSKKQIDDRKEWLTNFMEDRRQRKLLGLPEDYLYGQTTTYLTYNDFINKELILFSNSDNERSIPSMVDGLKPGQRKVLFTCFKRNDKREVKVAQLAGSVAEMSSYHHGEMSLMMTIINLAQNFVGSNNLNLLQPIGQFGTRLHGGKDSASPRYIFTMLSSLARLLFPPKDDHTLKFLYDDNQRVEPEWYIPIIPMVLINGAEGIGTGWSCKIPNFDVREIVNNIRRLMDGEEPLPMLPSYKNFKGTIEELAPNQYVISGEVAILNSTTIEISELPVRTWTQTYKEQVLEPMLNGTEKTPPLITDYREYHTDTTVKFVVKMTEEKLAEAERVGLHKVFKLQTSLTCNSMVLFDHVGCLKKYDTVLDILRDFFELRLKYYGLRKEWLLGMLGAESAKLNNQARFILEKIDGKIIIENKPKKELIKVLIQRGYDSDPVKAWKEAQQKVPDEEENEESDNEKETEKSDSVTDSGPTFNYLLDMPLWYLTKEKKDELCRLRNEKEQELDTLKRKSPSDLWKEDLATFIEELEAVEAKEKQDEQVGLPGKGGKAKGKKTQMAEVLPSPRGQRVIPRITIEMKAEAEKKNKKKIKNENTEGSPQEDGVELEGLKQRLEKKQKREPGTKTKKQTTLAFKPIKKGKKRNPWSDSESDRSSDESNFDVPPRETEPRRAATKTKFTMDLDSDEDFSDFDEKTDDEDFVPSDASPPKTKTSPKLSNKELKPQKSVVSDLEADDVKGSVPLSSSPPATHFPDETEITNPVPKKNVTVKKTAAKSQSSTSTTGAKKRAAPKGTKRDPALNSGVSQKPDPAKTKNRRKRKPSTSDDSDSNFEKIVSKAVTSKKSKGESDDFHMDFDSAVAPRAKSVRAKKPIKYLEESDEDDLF
Structure (SMILES),"selectivity, inhibitory activity in HL-60 versus HUVEC cells (cancer/healthy cell IC50 ratio) (HL-60 cells [1]; HL-60 compared to normal HUVEC cells, 48 h)",IC50 (HL-60 cells [1]; [3]),IC50 (HL-60 cells [1]; [4]),IC50 (MCF-7 cells),IC50 (HUVEC cells),BrdU-incorporating cell population (HL-60 cells [2]; [5]),BrdU-incorporating cell population (HL-60 cells [2]; compound at IC50 concentration),cells with γH2AX generation (H2AX phosphorylation) (γH2AX in HL-60 cells),inhibition of topoisomerase II activity (human topoisomerase IIα),"IC50 (HL-60 cells [1]; 48 h incubation, mean ± SEM, read-out: IC50 HL-60)",inhibitory activity towards topoisomerase IIα compared with 13d (human topoisomerase IIα; 0.5 and 1 mM)
"C=C1C(=O)C[C@H](C(C)C)O[C@H]1C(C)C (relative stereo) [Analog 13d, Trans-2,6-diisopropyl-3-methylidenetetrahydro-4H-pyran-4-one]",over 3 fold,15.7 ± 0.61 µM,7.65 ± 0.05 µM,14 ± 1 µM,24.7 ± 0.65 µM,26.4 ± 6.9%,31.5 ± 1.65%,38.4 ± 5.89%,inhibited topoisomerase II activity,,
"C=C1C(=O)C[C@H](c2ccccc2)O[C@H]1C(C)C (relative stereo) [Analog 13g, Trans-2-isopropyl-3-methylidene-6-phenyltetrahydro-4H-pyran-4-one]",,6.49 ± 0.31 µM,< 4 µM,8.63 ± 0.07 µM,3.84 ± 0.01 µM,31.9 ± 6.02%,35.3 ± 1.23%,9.6 ± 2.94%,inhibited topoisomerase II activity,3.69 ± 0.08 µM,stronger inhibitory activity

# From paper PMC9105583, “Stereoselective Synthesis and Anticancer Activity of 2,6-Disubstituted trans-3-Methylidenetetrahydropyran-4-ones” (Materials, 2022)
